Experimental data as given in patent US4005096A, “Therapeutically active phenoxyalkylamines” (Biersdorf Aktiengesellschaft, priority 1973, dated 1977).
Where a name gives a salt, the structure may show the parent alone. Read-outs that look alike come from different tables or passages of the source.

Key:
[1] = system: rats having artificially promoted high blood pressure (according to Goldblatt); test: blood pressure reduction in rats having artificially promoted high blood pressure (according to Goldblatt), plethysmographic at base of tail; assay type: in vivo; conditions: Rattus norvegicus, single dose; for change in vivo at 20 mg/kg: 20 mg/kg p.o.
Protocol: To show the blood pressure reducing properties of typical compounds according to the invention, products of the Examples were administered, to rats having artificially promoted high blood pressure (according to Goldblatt), in the form of solution either by injection under the skin of the back (subcutaneously) or by means of a stomach tube (perorally). 1,2.5 and 4 hours (and 1.75 hours in the case of Compound A) after administration of the substance the systolic and diastolic blood pressures were measured plethysmographically at the base of the tail of the rat. In the following Table I there is given for each of the individual compounds (designated A to M) the average value of the blood pressure in mm Hg before the administration of the compound, the time (determined from the measuring time) of maximum blood pressure reduction and the maximum reduction of the systolic and diastolic blood pressures expressed as a percentage of the initial value after a single administration of the dose.

[2] = acute toxicity (LD50 Mouse), Litchfield and Wilcoxon; conditions: in vivo
Text: Tests to determine the toxicity have been carried out. In each case 6 mice were given a particular dose of the compound to be tested combined with a suitable neutral diluent, administration being carried out perorally, intraveneously and/or intraperitoneally.
The statistical evaluation took place according to the method of J. F. Litchfield, Jr. and F. Wilcoxon in: "Journal of Pharmacology and Experimental Therapeutics", Volume 96 (1949), pages 99-113.
In the following Table II the toxicity of Compounds A to M are given.

[3] = sc, 10 mg/kg s.c., at the time given in the same line, read-out: Maximum blood pressure reduction, diastolic (percent of initial value)
[4] = sc, 10 mg/kg s.c., at the time given in the same line, read-out: Maximum blood pressure reduction, systolic (percent of initial value)

SMILES	change in vivo at 20 mg/kg ([1]; po, read-out: Maximum blood pressure reduction, diastolic (percent of initial value)) [%]	change in vivo at 20 mg/kg ([1]; po, read-out: Maximum blood pressure reduction, systolic (percent of initial value)) [%]	change in vivo at 10 mg/kg [1, 3] [%]	change in vivo at 10 mg/kg [1, 4] [%]	LD50 ([2]; ip) [mg/kg]	LD50 ([2]; iv) [mg/kg]	LD50 ([2]; po) [mg/kg]	change in vivo at 10 mg/kg ([1]; po, 10 mg/kg p.o., read-out: Maximum blood pressure reduction, diastolic (percent of initial value)) [%]	change in vivo at 10 mg/kg ([1]; po, 10 mg/kg p.o., read-out: Maximum blood pressure reduction, systolic (percent of initial value)) [%]
COc1ccccc1OCCNCCc1ccncc1 [Compound A, N-[4-Pyridyl-ethyl(2)]-o-methoxy-phenoxyethylamine.2 HCl]	-32	-28	-34	-25	150	53.5	290	–	–
COc1ccccc1OCCNCCc1ccccn1 [Compound B, N-[2-Pyridyl-ethyl(2)]-o-methoxy-phenoxyethylamine . 2 HCl]	–	–	-23	-20	150	31.5	–	–	–
COc1ccccc1OCCNCc1cccnc1 [Compound C, N-(3-Pyridyl-methyl)-o-methoxy-phenoxyethylamine .2 HCl]	–	–	-16	-15	150	73.3	390	–	–
COc1ccccc1OCCNCc1ccccn1 [Compound D, N-(2-Pyridyl-methyl)-o-methoxy-phenoxyethylamine. 2 HCl]	–	–	-25	-22	150	51	750	–	–
COc1ccccc1OCCNCc1ccncc1 [Compound E, N-(4-Pyridyl-methyl)-o-methoxy-phenoxyethylamine . 2 HCl]	–	–	-18	-15	364	90.1	730	-22	-20
Clc1ccccc1OCCCNCCc1ccncc1 [Compound F, N-[4-Pyridyl-ethyl(2)]-o-chloro-phenoxypropylamine dioxalate dihydrate]	–	–	–	–	> 800	–	–	–	–
Clc1ccccc1OCCNCCc1ccncc1 [Compound G, N-[4-Pyridyl-ethyl(2)]-o-chloro-phenoxyethylamine dioxalate dihydrate]	–	–	–	–	~200	71.7	–	–	–
Cc1cccnc1CNCCOc1ccccc1Cl [Compound H, N-[(3-Methyl-2-pyridyl)-methyl]-o-chloro-phenoxyethylamineoxalate hydrate]	–	–	-16	-16	220	50	–	–	–
Cc1cccnc1CNCCOc1ccccc1C#N [Compound J, N-[(3-Methyl-2-pyridyl)-methyl]-o-cyano-phenoxyethylamineoxalate hydrate]	–	–	-12	-11	–	73.3	660	–	–
Clc1ccccc1OCCCCNCCc1ccncc1 [Compound K, N-[4-Pyridyl-ethyl(2)]-o-chloro-phenoxybutylamine dioxalate monohydrate]	–	–	-19	-15	182	–	235	–	–
N#Cc1ccccc1OCCNCCc1ccncc1 [Compound L, N-[4-Pyridyl-ethyl(2)]-o-cyano-phenoxyethylamine dioxalate hydrate]	–	–	-19	-17	91	–	245	–	–
COc1ccccc1OCCNCc1ncccc1O.Cl.Cl [Compound M, N-[(3-Hydroxy-2-pyridyl)-methyl]-o-methoxy-phenoxyethylamine dihydrochloride]	–	–	-12	-11	–	55.6	–	–	–
